Data taken from US8852591B2, “Combination of BLyS and/or APRIL inhibition and immunosuppressants for treatment of autoimmune disease” (Zymogenetics, Inc., priority 2007, dated 2014).

Legend:
total IgA serum levels = assay: Repeat and extension of atacicept and MMF combination experiment, total IgA by ELISA; type: in vivo, mice; conditions: for Numeric mean IgA: dosing until day 91
Method: (§1) Using similar procedures to those described in Example 3 and dosing until day 91, the results of Example 3 were replicated and extended in time to days 35, 91, 126, and 182.
(§2) Group 1 received both the vehicle for ATACICEPT and the vehicle for CellCept at the same treatment frequency as the treated groups. Group 2 was treated with only ATACICEPT
(§3) Group 3 received only CellCept. Group 4 received CellCept oral gavage followed by ATACICEPT s.c. injection within a period of approximately 30 minutes. The day of the first treatment was considered day 1 of the study. Throughout the study period clinical observations, hematological and blood chemistry tests, toxicokinetics and additional investigations were carried out.
(§4) Additional satellite groups of animals were used for total immunoglobulin determinations and antibody determination. They were treated and weighed according to the same procedures as the main study.
(§5) Blood samples were collected from 3 animals/sex/group (in progressive numerical order) for the determination of IgG, IgM and IgA serum levels at the following times:
(§6) from animals of groups 9, 10, 11 and 12:
(§7) • on day 34 of the 5-week treatment period • on day 90 of the 13-week treatment period • on day 34 of the 5-week recovery period • on day 90 of the 13-week recovery period
(§8) The blood (at least 0.8-1 mL) was collected at sacrifice from the abdominal aorta of mice after they have been completely anaesthetized with diethyl ether.
(§9) Samples were collected in tubes without any anticoagulant and allowed to clot for about 1 hour at room temperature. The clot were spun down by centrifugation at 3000 rpm at +4° C. for 15 minutes. Blood cells were discarded and the serum banked in 100 μL aliquots (four aliquots for every single analysis) and stored at −80° C. until analysis. Total IgG, IgM and IgA levels were determined by validated ELISA methods.

total serum IgA = assay: 28-day atacicept and MMF co-administration study, total serum IgA by ELISA; type: in vivo, CD-1 mice
Method: (§10) Atacicept and MMF (CellCept) co-administration was tested in a 28-day study in CD-1 mice. One hundred fifty animals were distributed among four treatment groups. Group 1 received vehicle control articles used for both atacicept and MMF using the same route and regimen used for each test article. Group 2 received MMF (351 mg/kg) via daily oral gavage. Group 3 received atacicept (20 mg/kg) three times weekly via subcutaneous injection. Group 4 received atacicept (20 mg/kg, 3×/week, SC) and MMF (351 mg/kg, daily, oral), typically administered within 30 minutes of each other. […]
(§11) Animals were sacrificed at baseline (Day-1) and Days 14, 28 (last day of treatment), 42, 56, and 112. […] Body weights were measured and recorded on Day-1 of the study and weekly thereafter, and prior to sacrifice. […] Total serum IgG, IgM, and IgA were measured using a […] necropsies were conducted on sacrificed animals for evaluation of organ weight changes, gross pathology, and histopathology.
(§12) Total IgA levels were evaluated using a mouse IgA ELISA quantitation kit (Catalog #E90-103, Bethyl Laboratories, Montgomery, Tex.), combined with the ELISA Starter Accessory Package (Catalog #E101, Bethyl Laboratories, Montgomery, Tex.). […] The color reaction was stopped with addition of 2 M H2SO4, and the resulting absorbance (OD-450) was measured on a Spectramax 190 microplate reader. […]

total serum IgG = assay: 28-day atacicept and MMF co-administration study, total serum IgG by ELISA; type: in vivo, CD-1 mice
Method: as §10, §11
as §12, with “IgG” for “IgA”, “#E90-131,” for “#E90-103,”

total IgM serum levels = assay: Repeat and extension of atacicept and MMF combination experiment, total IgM by ELISA; type: in vivo, mice; conditions: for Numeric mean IgM: dosing until day 91
Method: as §1, §2, §3, §4, §5, §6, §7, §8, §9

total IgG serum levels = assay: Repeat and extension of atacicept and MMF combination experiment, total IgG by ELISA; type: in vivo, mice; conditions: for Numeric mean IgG: dosing until day 91, atacicept 20 mg/kg s.c. 3/week, MMF 350 mg/kg/day oral
Method: as §1, §2, §3, §4, §5, §6, §7, §8, §9

total serum IgM = assay: 28-day atacicept and MMF co-administration study, total serum IgM by ELISA; type: in vivo, CD-1 mice
Method: as §10, §11
as §12, with “IgM” for “IgA”, “#E90-101,” for “#E90-103,”

[1] = Day 28 (last day of treatment), MMF 351 mg/kg daily oral, atacicept 20 mg/kg 3x/week SC
[2] = Day 28, positive = reduction versus vehicle

**Q.** How did the “Difference from Vehicle, mean IgA (vehicle minus treatment)” value (total IgA serum levels; Sample Day 91) turn out when `COc1c(C)c2c(c(O)c1C/C=C(\C)CCC(=O)OCCN1CCOCC1)C(=O)OC2` [MMF, mycophenolate mofetil] was run?
**A.** -840.19 µg/mL

**Q.** What about the “Numeric mean IgA” value (total IgA serum levels; Sample Day 91, atacicept 20 mg/kg s.c. 3/week, MMF 350 mg/kg/day oral) of the same compound?
**A.** 1764.55 µg/mL

**Q.** And the “Difference from Vehicle, mean IgA (vehicle minus treatment)” value (total IgA serum levels; Sample Day 126)?
**A.** -353.57 µg/mL

**Q.** What about the “Numeric mean IgA” value (total IgA serum levels; Sample Day 126 (recovery period)) of the same compound?
**A.** 1467.05 µg/mL

**Q.** And the “Numeric mean IgA” value (total serum IgA; [1])?
**A.** 506 µg/mL

**Q.** What about the “Difference from Vehicle, mean IgA (vehicle minus treatment)” value (total serum IgA; [2]) of the same compound?
**A.** -8 µg/mL

**Q.** What about the “Numeric mean IgG” value (total serum IgG; [1]) of the same compound?
**A.** 185 µg/mL

**Q.** What about the “Difference from Vehicle, mean IgG (vehicle minus treatment)” value (total serum IgG; [2]) of the same compound?
**A.** -6 µg/mL

**Q.** And the “Difference from Vehicle, mean IgM (vehicle minus treatment)” value (total IgM serum levels; Sample Day 35)?
**A.** -35.64 µg/mL

**Q.** And the “Numeric mean IgM” value (total IgM serum levels; Sample Day 35, atacicept 20 mg/kg s.c. 3/week, MMF 350 mg/kg/day oral)?
**A.** 141.34 µg/mL

**Q.** And the “Difference from Vehicle, mean IgM (vehicle minus treatment)” value (total IgM serum levels; Sample Day 182)?
**A.** 20.18 µg/mL

**Q.** And the “Numeric mean IgM” value (total IgM serum levels; Sample Day 182 (recovery period))?
**A.** 53.77 µg/mL

**Q.** What about the “Difference from Vehicle, mean IgG (vehicle minus treatment)” value (total IgG serum levels; Sample Day 35) of the same compound?
**A.** -420.43 µg/mL

**Q.** And the “Numeric mean IgG” value (total IgG serum levels; Sample Day 35)?
**A.** 940.13 µg/mL

**Q.** And the “Difference from Vehicle, mean IgG (vehicle minus treatment)” value (total IgG serum levels; Sample Day 91)?
**A.** -495.86 µg/mL

**Q.** What about the “Numeric mean IgG” value (total IgG serum levels; Sample Day 91) of the same compound?
**A.** 1192.87 µg/mL

**Q.** And the “Numeric mean IgM” value (total serum IgM; [1])?
**A.** 317 µg/mL

**Q.** And the “Difference from Vehicle, mean IgM (vehicle minus treatment)” value (total serum IgM; [2])?
**A.** -79 µg/mL
